Data as given in patent US10987327B2, “Method for preventing or treating autism spectrum disorders by benzoic acid salt” (EXCELSIOR PHARMATECH LABS, priority 2017, dated 2021).
“And” between values parts separate entries of the source, which are not always exact repeats. Equal values may be shown once. “Also recorded” adds a separate entry of the source.

Legend:
children with ASD [1] = assay: Adaptive Behavior Assessment System-II (ABAS-II), 12-week open label trial; format: in vivo, human; conditions: sodium benzoate 250 to 500 mg/day, 12 weeks, c2-c7 = child A-F
Protocol: (§1) Six children with ASD were treated with 250 to 500 mg/day of sodium benzoate for 12 weeks. At the baseline and the final (12 weeks) visit, the assessments of receptive and expressive vocabulary test (REVT), core vocabularies gained in the core vocabulary communication system, Chinese child developmental inventory, adaptive behavior assessment system-II (ABAS-II), parenting stress index (PSI), clinical global impression-improvement scale (CGI-I) were arranged.
(§2) This study was a twelve-week open label trial with the aim of gaining experience with sodium benzoate for the treatment of non-communicative children with ASDs. The participants were a convenient sample of outpatients children recruited from the Department of Pediatrics, Kaohsiung Medical University Hospital, Taiwan.
(§3) Six children, including five boys and 1 child with ages between 3-year-7-month to 9-year-10-month old, were assigned to receive a 12-week treatment of sodium benzoate. For children with a body weight equal or more than 15 kg, benzoate was given with 500 mg/day. […]
The ABAS-II is an individually administered, norm-referenced measure of adaptive behaviors (Harrison and Oakland, 2003). […] A Global Adaptive Composite (GAC) score is calculated from all nine skill area scores and presented as a norm-referenced standard score. Results were recorded by the pre- and post-GAC score and Social score.

children with ASD [2] = assay: Parenting Stress Index-Chinese version (PSI), 12-week open label trial; format: in vivo, human; conditions: sodium benzoate 250 to 500 mg/day, 12 weeks; * = above 85 percentile; c2-c7 = child A-F; Pre-Tx A-F: 70, 97.5, 99, 99, 69, 50
Protocol: as §1, §2
as §3, with “mg/day. For children with a body weight less than 15 kg, benzoate was given with 250 mg/day.” for “mg/day.”
Primary caregiver filled out the Chinese version of the parenting stress index (Wen, 2003) which was a validated Chinese version of the original questionnaire developed by Abdin (Abidin, 1986) that measured aspects of parental functioning. […]

children with ASD [3] = assay: Clinical Global Impression-Improvement Scale (CGI-I) and clinicians' conclusion, 12-week open label trial; format: in vivo, human; conditions: for Clinicians' conclusion on improvement of the individual child (text): after 12 weeks, b64-b69 = child A-F in order
Protocol: as §1, §2
(§4) Six children, including five boys and 1 child with ages between 3-year-7-month to 9-year-10-month old, were assigned to receive a 12-week treatment of sodium benzoate. For children with a body weight equal or more than 15 kg, benzoate was given with 500 mg/day. For children with a body weight less than 15 kg, benzoate was given with 250 mg/day. Sodium benzoate was provided by Excelsior Pharmatech Labs (Taiwan).
(§5) All the children entering this study also started to receive communication training using the Core Vocabulary Communication System—Chinese version (the Unlimiter Assistive Technology Engineering Lab, Taiwan). Parents were required to teach their children 40 minutes per day at home using this System. During the 12-week period, the parents were required to bring children back the hospital every 2 weeks. At the baseline and the final (12 weeks) visit, the following assessments were arranged.
The CGI-I is an observer-rated scale that measures the global improvement of illness as compared to condition at admission to the trial (Guy, 1976).

children with ASD [4] = assay: Safety observations (activity level, sleep) in the 12-week open label trial; format: in vivo, human; conditions: for Sleep: child C first 3 days of benzoate usage, child D, child E; for Activity level (untoward activating effect): child D at final assessment, child E in the first two weeks, returned to baseline one month later
Description: The present disclosure examined the efficacy and safety of sodium benzoate, a D-amino acid oxidase inhibitor, for the treatment of an autism spectrum disorder.
as §2, §4, §5

[5] = test system: early-phase Alzheimer disease; conditions: prior trial; cited from earlier work
schizophrenia = conditions: prior trial; cited from earlier work

## O=C([O-])c1ccccc1.[Na+] [sodium benzoate]
Children with ASD [1]; Pre-Tx A-F: 71, 51, 57, 61, 46, 45
  ABAS-S: Parental reported Social Score, Post-Tx: 77 and 51 and 50 and 44 and 46 and 45
Children with ASD [1]; Pre-Tx A-F: 77, 60, 47, 53, 50, 58
  ABAS-GCS: Parental reported General Adaptive Composite Score, Post-Tx: 77 and 61 and 46 and 49 and 53 and 57
Children with ASD [2]
  PSI % (parenting stress index, derived raw-to-percentile score), Post-Tx: 62% and 93* % and 99* % and 99.9* % and 75% and 72%
Children with ASD [3]
  Clinicians' conclusion on improvement of the individual child (text): much improved; also recorded: no improvement; also recorded: minimally improved
Children with ASD [3]; listed as benzoate
  Clinicians' conclusion on improvement of the individual child (text): minimal improvement
Children with ASD [3]; six children, 12 weeks
  Overall effect in teaching of communication skill as observed by the parents and clinicians: beneficial effects
Children with ASD [3]; six children, 12 weeks, child A, B, E
  Participants judged to be much improved: Half of the participants
Children with ASD [3]; sodium benzoate 250 to 500 mg/day, 12 weeks, c2-c7 = child A-F
  CGI: Clinical Global Impression-Improvement: much ((2) much improved); also recorded: mini-; also recorded: nil ((4) no change)
Children with ASD [4]
  Sleep: sleep pattern was unaltered
  Activity level (untoward activating effect): activity level became even higher; also recorded: activity level increased
Children with ASD [4]; listed as benzoate
  Sleep: not able to fall asleep at their usual sleep time
Children with ASD [4]; listed as benzoic acid salt
  Activity level (untoward activating effect): untoward activating effect
[5]
  Clinical symptoms, neurocognitive ability and quality of life: Significant improvements
schizophrenia
  Clinical symptoms, neurocognitive ability and quality of life: Significant improvements
